Source: ChEMBL document CHEMBL3885881, “DrugMatrix”

Species: Rattus norvegicus
Experiment: DrugMatrix - Regimen: Daily Repeat
Type: toxicity, organism-based, Sprague-Dawley
Design: regimen Daily Repeat, gender Male, age 6-8 weeks
Conditions: in vivo, iv, vehicle 100 % SALINE; for URIC ACID / ALANINE AMINOTRANSFERASE / ALBUMIN / ALKALINE PHOSPHATASE / ASPARTATE AMINOTRANSFERASE / BLOOD UREA NITROGEN / CARBON DIOXIDE / CHLORIDE / CHOLESTEROL / CREATINE PHOSPHOKINASE / CREATININE / GLUCOSE / LIPASE / PHOSPHORUS / POTASSIUM / SODIUM / TOTAL BILIRUBIN / TOTAL PROTEIN: tissue Plasma; for ABSOLUTE BASOPHIL / ABSOLUTE EOSINOPHIL / ABSOLUTE LYMPHOCYTE / ABSOLUTE MONOCYTE / ABSOLUTE SEGMENTED NEUTROPHIL / BASOPHIL / EOSINOPHIL / ERYTHROCYTE COUNT / HEMATOCRIT / HEMOGLOBIN / LYMPHOCYTE / MEAN CORPUSCULAR HEMOGLOBIN / MEAN CORPUSCULAR HEMOGLOBIN CONCENTRATION / MONOCYTE / NEUTROPHIL / NUCLEATED RED BLOOD CELLS / PLATELET COUNT: tissue Blood
[1] = 5 mg/kg, 120 h, dose level High, time 5 day
[2] = […], 72 h, dose 1.5 mg/Kg, dose level Low, time 3 day
[3] = […], 120 h, dose 1.5 mg/Kg, dose level Low, time 5 day

CCc1c2c(nc3ccc(OC(=O)N4CCC(N5CCCCC5)CC4)cc13)-c1cc3c(c(=O)n1C2)COC(=O)[C@]3(O)CC [IRINOTECAN]
URIC ACID (5 mg/kg, 72 h, dose level High, time 3 day): 1.77 mg/dL
ABSOLUTE BASOPHIL [1]: 0 CELLS/uL
ABSOLUTE EOSINOPHIL [1]: 0 CELLS/uL
ABSOLUTE LYMPHOCYTE [1]: 10356 CELLS/uL
ABSOLUTE MONOCYTE [1]: 74 CELLS/uL
ABSOLUTE SEGMENTED NEUTROPHIL [1]: 470 CELLS/uL
BASOPHIL [1]: 0%
EOSINOPHIL [1]: 0%
ERYTHROCYTE COUNT [1]: 6.32 x10E6/uL
HEMATOCRIT [1]: 37.73%
HEMOGLOBIN [1]: 15.1 G/DL
LYMPHOCYTE [1]: 95%
MEAN CORPUSCULAR HEMOGLOBIN [1]: 23.93 pg
MEAN CORPUSCULAR HEMOGLOBIN CONCENTRATION [1]: 40.07 G/DL
MONOCYTE [1]: 0.67%
NEUTROPHIL [1]: 4.33%
NUCLEATED RED BLOOD CELLS [1]: 0 /100WBC
PLATELET COUNT [1]: 1232.33 x10E3/uL
ALANINE AMINOTRANSFERASE [1]: 38 u/L
ALBUMIN [1]: 4.37 G/DL
ALKALINE PHOSPHATASE [1]: 299.33 u/L
ASPARTATE AMINOTRANSFERASE [1]: 100.33 u/L
BLOOD UREA NITROGEN [1]: 21.33 mg/dL
CARBON DIOXIDE [1]: 22.67 mmol/L
CHLORIDE [1]: 100 MEQ/L
CHOLESTEROL [1]: 65 mg/dL
CREATINE PHOSPHOKINASE [1]: 991 u/L
CREATININE [1]: 0.24 mg/dL
GLUCOSE [1]: 171.67 mg/dL
LIPASE [1]: 9.33 u/L
PHOSPHORUS [1]: 12.93 mg/dL
POTASSIUM [1]: 6.75 MEQ/L
SODIUM [1]: 142.97 MEQ/L
TOTAL BILIRUBIN [1]: 0.13 mg/dL
TOTAL PROTEIN [1]: 6.67 G/DL
URIC ACID [1]: 2.8 mg/dL
ABSOLUTE BASOPHIL [2]: 0 CELLS/uL
ABSOLUTE EOSINOPHIL [2]: 215 CELLS/uL
ABSOLUTE LYMPHOCYTE [2]: 8779 CELLS/uL
ABSOLUTE MONOCYTE [2]: 139.33 CELLS/uL
ABSOLUTE SEGMENTED NEUTROPHIL [2]: 933.33 CELLS/uL
BASOPHIL [2]: 0%
EOSINOPHIL [2]: 2%
ERYTHROCYTE COUNT [2]: 5.76 x10E6/uL
HEMATOCRIT [2]: 36.73%
HEMOGLOBIN [2]: 14.23 G/DL
LYMPHOCYTE [2]: 87.33%
MEAN CORPUSCULAR HEMOGLOBIN [2]: 24.73 pg
MEAN CORPUSCULAR HEMOGLOBIN CONCENTRATION [2]: 38.77 G/DL
MONOCYTE [2]: 1.33%
NEUTROPHIL [2]: 9.33%
NUCLEATED RED BLOOD CELLS [2]: 0 /100WBC
PLATELET COUNT [2]: 1185.67 x10E3/uL
ALANINE AMINOTRANSFERASE [2]: 45.33 u/L
ALBUMIN [2]: 4.23 G/DL
ALKALINE PHOSPHATASE [2]: 367.67 u/L
ASPARTATE AMINOTRANSFERASE [2]: 79.33 u/L
BLOOD UREA NITROGEN [2]: 14.67 mg/dL
CARBON DIOXIDE [2]: 27 mmol/L
CHLORIDE [2]: 99 MEQ/L
CHOLESTEROL [2]: 76.33 mg/dL
CREATINE PHOSPHOKINASE [2]: 268.33 u/L
CREATININE [2]: 0.18 mg/dL
GLUCOSE [2]: 157 mg/dL
LIPASE [2]: 9.67 u/L
PHOSPHORUS [2]: 15.07 mg/dL
POTASSIUM [2]: 6.67 MEQ/L
SODIUM [2]: 143.87 MEQ/L
TOTAL BILIRUBIN [2]: 0.17 mg/dL
URIC ACID [2]: 1.7 mg/dL
ABSOLUTE BASOPHIL [3]: 0 CELLS/uL
ABSOLUTE EOSINOPHIL [3]: 58.33 CELLS/uL
ABSOLUTE LYMPHOCYTE [3]: 15491.67 CELLS/uL
ABSOLUTE MONOCYTE [3]: 116.67 CELLS/uL
ABSOLUTE SEGMENTED NEUTROPHIL [3]: 2000 CELLS/uL
BASOPHIL [3]: 0%
EOSINOPHIL [3]: 0.33%
HEMATOCRIT [3]: 36.13%
HEMOGLOBIN [3]: 14.3 G/DL
LYMPHOCYTE [3]: 87.67%
MEAN CORPUSCULAR HEMOGLOBIN [3]: 24 pg
MEAN CORPUSCULAR HEMOGLOBIN CONCENTRATION [3]: 39.57 G/DL
MONOCYTE [3]: 0.67%
NEUTROPHIL [3]: 11.33%
NUCLEATED RED BLOOD CELLS [3]: 0 /100WBC
PLATELET COUNT [3]: 1288 x10E3/uL
ALANINE AMINOTRANSFERASE [3]: 54 u/L
ALBUMIN [3]: 4.03 G/DL
ALKALINE PHOSPHATASE [3]: 415.33 u/L
ASPARTATE AMINOTRANSFERASE [3]: 101 u/L
BLOOD UREA NITROGEN [3]: 15.67 mg/dL
CARBON DIOXIDE [3]: 26 mmol/L
CHLORIDE [3]: 101.33 MEQ/L
CHOLESTEROL [3]: 68.67 mg/dL
CREATINE PHOSPHOKINASE [3]: 578.67 u/L
CREATININE [3]: 0.21 mg/dL
GLUCOSE [3]: 151 mg/dL
LIPASE [3]: 9.67 u/L
PHOSPHORUS [3]: 13.47 mg/dL
POTASSIUM [3]: 6.54 MEQ/L
SODIUM [3]: 146.17 MEQ/L
TOTAL BILIRUBIN [3]: 0.13 mg/dL
TOTAL PROTEIN [3]: 5.93 G/DL
URIC ACID [3]: 1.8 mg/dL
